Reference: patent publication US20190175528A1, “INHIBITION OF BIOFILM ORGANISMS” (NovaBiotics Limited, priority 2009, published 2019)

Experiments:
[1] = test system: P. aeruginosa strains (7); assay: microbe, parasite or virus in culture; assay type: cell-based, Pseudomonas aeruginosa; settings: agent alone; range over strains
Procedure: (§1) The bacterial inoculum was established by the dilution method from actively-growing cultures in Mueller-Hinton broth, standardized with 0.5 McFarland turbidity standard as described in the CLSI method M26-A.
(§2) To determine the prevention of biofilm formation, both the bacterial inoculum and the antimicrobial agents were added simultaneously to the plates. The plates were incubated at 37° C. for 24 h and the optical density was read at 625 nm on a microtitre plate reader (BioTek Powerwave XS, Winooski, USA). The MIC was obtained as the lowest concentration of antimicrobial showing total inhibition of bacterial growth.
(§3) The FIC corresponds to an interaction coefficient indicating whether the combination of antimicrobial agents is synergistic, additive, antagonist or neutral. The FIC is determined by comparing the activity of an agent in combination (MIC of agent A+agent B) with the activity of the agent alone (MIC of agent A or agent B) as follow (Singh et al., 2000):
(§4) FIC=MICA[combination]/MICA[alone]+MICB[combination]/MICB[alone]
(§5) Additive combinations of two antimicrobial agents are indicated by a FIC index of 1, whereas a FIC index <1 indicates synergistic combinations. Neutral combinations would give a FIC between 1 and 4, a FIC index higher than 4 indicates antagonist effects between the two antimicrobial agents.
(§6) Summary of the activity of the tested antimicrobial agents against the Gram-negative P. aeruginosa strains and the Gram-positive Staphylococcus spp. The number into brackets indicates the maximum number of strains tested. MIC: minimum inhibition concentration; MBEC: minimum biofilm eradication concentration; FIC: fractional inhibitory concentration.

[2] = test system: Staphylococcus spp (4); assay: microbe, parasite or virus in culture; assay type: cell-based; settings: agent alone; range over strains
Procedure: as §1, §2, §3, §4, §5, §6

[3] = test system: P. aeruginosa strains (7) biofilm cells; assay type: cell-based, Pseudomonas aeruginosa; settings: agent alone
Procedure: (§7) The FIC was also calculated to assess the interaction of two antimicrobial agents in combination against bacterial biofilms. The same formulae applied, using MBEC instead of MIC.
(§8) A total volume of 100 μl bacterial inoculum in Mueller-Hinton was added to each well of 96-well plates (challenge plates) and the plates were incubated at 37° C. for 24 h on a gyrorotary shaking platform (Grant-bio PS-3D, Shepreth, England) at 24 rpm to allow for biofilm formation.
(§9) The challenge plates were then rinsed once with sterile PBS (lx) and two-fold serial dilutions of antimicrobial agents in Mueller-Hinton were added to the challenge plates. The challenge plates were incubated at 37° C. for 24 h on a gyrorotary shaking platform (Grant-bio PS-3D, Shepreth, England) at 24 rpm.
(§10) The supernatants from each of the challenge plates were transferred into fresh plates and the optical density was measured at 625 nm on a microtitre plate reader (BioTek Powerwave XS, Winooski, USA). The MBEC was obtained by the lowest concentration of antimicrobial showing no bacterial growth.
as §6

[4] = test system: Staphylococcus spp (4) biofilm cells; assay type: cell-based
Procedure: as §7, §8, §9, §10, §6

[5] = test system: P. aeruginosa strains (7) persister cells; assay: Persister cells in biofilms (live/dead staining), summary over strains; assay type: cell-based, Pseudomonas aeruginosa; settings: agent alone
Procedure: (§11) Following transfer of the supernatant from the challenge plates, the biofilms were rinsed once with sterile PBS (lx) and 100 μl of BacLight live/dead fluorescent staining solution (Invitrogen, Paisley, UK) containing 4 μM SYTO9 and 20 μM propidium iodide (PI) in sterile PBS (lx) were added to the wells of the challenge plates. The plates were incubated at room temperature in the dark for 15 min and the fluorescence was read at 485(ex)/528(em) and 485(ex)/645(em) for SYTO9 and PI fluorescence, respectively on a fluorescence microtitre plate reader (BioTek Synergy HT, Winooski, USA) with the sensitivity set at 50 and bottom optics position was selected. Direct observation of the biofilms with an Axiovert 40 fluorescence microscope (Zeiss, Gottingen, Germany) allowed identifying the presence of live and dead bacteria and pictures of the biofilms were taken at 100 to 400-fold magnification.
(§12) The relative viability of persister cells was determined by the live/dead fluorescence measurements ratio and microscopic observations were used to confirm the presence or absence of live cells.
as §6

[6] = test system: P. aeruginosa ATCC BAA-47 (PAO1) biofilm cells; assay: MBEC against 24 h-old biofilm; assay type: cell-based, Pseudomonas aeruginosa; settings: agent alone
Procedure: as §7, §8, §9, §10
(§13) The assessment of the activity of NP108 and cysteamine against bacterial biofilms was carried out with 24 h-old biofilms and the activity of both compounds in combination was also determined. The activity of the antimicrobial agents against bacterial biofilms was determined by their activity against the biofilm cells and against the persister cells.

[7] = test system: P. aeruginosa ATCC BAA-47 (PAO1) persister cells; assay: Relative viability of persister cells (SYTO9/PI live/dead fluorescence, microscopy); assay type: cell-based, Pseudomonas aeruginosa; settings: agent alone; FIG. 6, FIG. 8
Procedure: as §11, §12
The activity of NP108 and cysteamine against the persister cells was assessed using a fluorescence staining method to determine the relative viability of the cells. The nucleic acid-binding fluorescent molecules used were SYTO9 and PI, which penetrate all bacterial cells (green fluorescence) and membrane-disrupted cells (red fluorescence), respectively.

[8] = test system: Staphylococcus spp (4) persister cells; assay: Persister cells in biofilms (live/dead staining), summary over strains; assay type: cell-based; settings: agent alone; FIG. 8
Procedure: as §11, §12, §6

[9] = test system: S. aureus DSM 11729 biofilm cells; assay type: cell-based, Staphylococcus aureus; settings: agent alone
Procedure: as §7, §8, §9, §10, §13

[10] = test system: S. epidermidis 12228 biofilm cells; assay: MBEC against 24 h-old biofilm; assay type: cell-based, Staphylococcus epidermidis; settings: agent alone
Procedure: as §8, §9, §10, §13

[11] = test system: P. aeruginosa ATCC27853 biofilm cells; assay type: cell-based, Pseudomonas aeruginosa
Procedure: as §8, §9, §10

[12] = test system: P. aeruginosa ATCC27853 persister cells; assay: Relative viability of persister cells (SYTO9/PI live/dead fluorescence); assay type: cell-based, Pseudomonas aeruginosa; settings: 1024 μg/ml NP341+3128 μg/ml N-acetylcysteine; FIG. 20b
Procedure: as §11, §12

[13] = test system: methicillin-resistant S. aureus (MRSA) DSM 11729 planktonic cells; assay: Time course activity over a 48-h period against planktonic cells; assay type: cell-based, Staphylococcus aureus; settings: 0.25 mg/ml
Description: The range of concentrations tested as shown in the legends is in mg/ml.

Structure (SMILES): N=C(N)NCCC[C@@H](N)C(=O)N[C@H](CCCNC(=N)N)C(=O)N[C@H](CCCNC(=N)N)C(=O)N[C@H](CCCNC(=N)N)C(=O)N[C@H](CCCNC(=N)N)C(=O)N[C@H](CCCNC(=N)N)C(=O)N[C@H](CCCNC(=N)N)C(=O)N[C@H](CCCNC(=N)N)C(=O)N[C@H](CCCNC(=N)N)C(=O)N[C@H](CCCNC(=N)N)C(=O)N[C@H](CCCNC(=N)N)C(=O)N[C@H](CCCNC(=N)N)C(=O)N[C@H](CCCNC(=N)N)C(=O)O [NP339, dRdRdRdRdRdRdRdRdRdRdRdRdR]
- MIC, P. aeruginosa strains (7) [1]: 62.5 µg/mL
- MIC, Staphylococcus spp (4) [2]: 4 to 128 µg/mL
- MBEC, P. aeruginosa strains (7) [3]: >5,000 μg/ml
- MBEC against biofilms of 3 Staphylococcus species ([4]; FIG. 5, range over 3 species): 156 to 625 µg/mL
- MBEC, Staphylococcus spp (4) ([4]; agent alone, biofilm cells): 156 to 625 µg/mL
- Persisters, active concentration, P. aeruginosa strains (7) [5]: 625 µg/mL
- MBEC, P. aeruginosa BAA-47 (PAO1); highest dose tested not sufficient to inhibit 100% of the biofilm cells ([6]; FIG. 5): > 5 mg/mL
- concentration that inhibits the viability of P. aeruginosa BAA-47 (PAO1) persister cells [7]: 625 µg/mL

Structure (SMILES): N=C(N)NCCC[C@@H](N)C(=O)N[C@H](CCCNC(=N)N)C(=O)N[C@H](CCCNC(=N)N)C(=O)N[C@H](CCCNC(=N)N)C(=O)N[C@H](CCCNC(=N)N)C(=O)N[C@H](CCCNC(=N)N)C(=O)N[C@H](CCCNC(=N)N)C(=O)N[C@H](CCCNC(=N)N)C(=O)N[C@H](CCCNC(=N)N)C(=O)N[C@H](CCCNC(=N)N)C(=O)N[C@H](CCCNC(=N)N)C(=O)N[C@H](CCCNC(=N)N)C(=O)N[C@H](CCCNC(=N)N)C(N)=O [NP341, dRdRdRdRdRdRdRdRdRdRdRdRdR-CONH]
- MIC, P. aeruginosa strains (7) [1]: 31.25 µg/mL
- MIC, Staphylococcus spp (4) [2]: 250 µg/mL
- MBEC, P. aeruginosa strains (7) [3]: >5,000 μg/ml
- Persisters, active concentration, P. aeruginosa strains (7) [5]: 625 µg/mL
- decrease of viability of persister cells of the 3 Staphylococcus species [8]: 25 to 50%
- reduction of viability of biofilm cells, P. aeruginosa BAA-47 (PAO1) ([6]; FIG. 7): 2 to 3 fold
- MBEC, S. aureus (MRSA) DSM 11729 biofilm cells [9]: 625 µg/mL
- reduction of viability of biofilm cells, MRSA 11729 ([9]; FIG. 7): 2 to 3 fold
- MBEC, S. epidermidis 12228 biofilm cells [10]: 625 µg/mL
- MBEC alone, P. aeruginosa ATCC27853 ([11]; agent alone, FIG. 21a): more than 2 mg/ml
- NP341 needed to reach the MBEC in combination, P. aeruginosa ATCC27853 ([11]; in combination with 3-6 mg/ml of N-acetylcysteine, FIG. 20a): 205 µg/mL
- concentration that inhibits the viability of P. aeruginosa BAA-47 (PAO1) persister cells [7]: 625 µg/mL
- inhibition of persister cells, P. aeruginosa ATCC27853 [12]: approximately 75%
- duration of complete inhibition [13]: 48 h
